This is an account of results in patent publication US20240239804A1, “FUROINDAZOLE DERIVATIVES AS ANTAGONISTS OR INHIBITORS OF GPR84” (Bayer Aktiengesellschaft, priority 2021, published 2024).

In general, IC50 refers to the concentration that inhibits the measured activity by half.

The structures appear in SMILES notation.

For the assay, the target named is T1, human GPR84 receptor (Homo sapiens, UniProt Q9NQS5).
T1 construct: frozen aliquots prepared by acCELLerate; host or cells: CHO-K1
T1 sequence (Q9NQS5 whole entry): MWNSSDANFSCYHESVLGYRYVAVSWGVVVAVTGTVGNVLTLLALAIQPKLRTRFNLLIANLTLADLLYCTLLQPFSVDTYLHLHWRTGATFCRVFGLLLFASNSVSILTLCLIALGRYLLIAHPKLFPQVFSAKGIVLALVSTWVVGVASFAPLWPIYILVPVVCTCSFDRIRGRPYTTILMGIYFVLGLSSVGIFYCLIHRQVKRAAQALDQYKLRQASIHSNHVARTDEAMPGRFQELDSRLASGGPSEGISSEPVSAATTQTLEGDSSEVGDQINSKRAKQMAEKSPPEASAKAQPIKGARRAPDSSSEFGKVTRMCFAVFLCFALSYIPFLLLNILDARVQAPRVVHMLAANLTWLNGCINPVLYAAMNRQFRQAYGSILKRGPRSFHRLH
Description: cAMP HTRF assay for identification of cellular GPR84 antagonists. In kind it is cell-based. The settings on record: CHO-K1 cells stably expressing human GPR84; Forskolin plus agonist 6-OAU; cAMP HTRF readout; average or median values. An excerpt:
cAMP HTRF® Assay for Identification of Cellular GPR84 Antagonists
By using a Homogenous Time-Resolved Fluorescence (HTRF®) based assay (#62AM5PEJ, Cisbio, Condolet, France) the inhibition of the Gi-coupled GPR84 receptor can be detected. CHO-K1 cells stably expressing human GPR84 receptor (purchased from DiscoveRx, now Eurofins) were used and treated with Forskolin (F6886, Sigma, Germany) to stimulate membrane adenylyl cyclases and thereby unspecific cAMP formation. Activation of the Gi-coupled GPR84 by a natural or small molecule agonist (e.g. 6-n-octyl aminouracile, inhouse) results in inhibition of cellular cAMP formation which can be released again by antagonists to this receptor. Detection and quantification of cellular cAMP levels in this HTRF assay is achieved by interaction between a fluorescent cAMP tracer (cAMP-d2) and an Eu-cryptate labelled anti-cAMP antibody. Following excitation at 337 nm this pairing allows for the generation of a fluorescence resonance energy transfer (FRET) between the partners and results in FRET induced emissions at 665 nm and 620 nm, the latter representing background signal by Eu-cryptate labelled anti-cAMP antibody. Maximal signal is obtained in the absence of any cellular cAMP (no competition for the binding of the tracer to the antibody). Given the combination of the Gi coupling properties of GPR84 and the competitive nature of the detection system agonist treatment should result in an increase in the HTRF signal due to lowered cAMP levels. Any signal decrease in the presence of Forskolin, agonist and compound are indicative of antagonist mediated abrogation of GPR84 signalling.
For the assay, frozen aliquots of CHO-K1 cells expressing hGPR84 (prepared by acCELLerate, Hamburg, Germany) were thawed and a cell suspension (1.67E+06 cells/mL) in assay media (Ham's F12 Nutrient Mix, Thermo Fisher Scientific, Waltham, USA; 5% fetal calf serum, Biomol, Hamburg, Germany) containing cAMP-d2 (dilution 1:20, supplied with the kit #62AM5PEJ, Cisbio, Condolet, France) was prepared. After recovery of cells for 20 minutes at 37° C., 3 μL/well cell suspension including cAMP-d2 were added to a pre-dispensed assay plate (Greiner Bio-One, Kremsmuenster, Austria) containing 50 nl/well test compound in 100% DMSO or 100% DMSO as control. This was followed by a 30 minute incubation step at room temperature. The stimulation time was started by addition of 2 μL/well assay media containing 2.5×EC80 agonist 6-OAU and 2.5×EC90 Forskolin (negative control: 2.5×EC90 Forskolin in assay media) and was continued for 30 minutes at room temperature. The reaction was stopped by addition of 3 μL/well lysis buffer containing cAMP Eu-Cryptate antibody (dilution 1:20) (both supplied with the kit #62AM5PEJ, Cisbio, Condolet, France). To enable complete lysis, plates were incubated for 60 minutes at room temperature before measurement in an HTRF reader, e.g. a PHERAstar (BMG Labtech, Ortenberg, Germany).
From the fluorescence emissions at 665 nm (FRET) and at 620 nm (background signal of Eu-cryptate) the ratio (emission at 665 nm divided by emission at 620 nm×10000) was calculated and the data were normalized (reaction without test compound, only 100% DMSO=0% inhibition; all other assay components except agonist=100% inhibition). For dose response testing on the same microtiter plate, compounds were tested at 11 different concentrations in the range of 20 μM to 0.07 nM (20 μM, 5.7 μM, 1.6 μM, 0.47 μM, 0.13 μM, 38 nM, 11 nM, 3.1 nM, 0.89 nM, 0.25 and 0.07 nM; dilution series prepared before the assay at the level of the 100-fold conc. stock solutions by serial 1:3.5 dilutions in 100% DMSO) in duplicate values for each concentration. IC50 values were calculated by 4-parameter fitting using a commercial software package (Genedata Screener, Basel, Switzerland).
Examples were tested in selected biological assays one or more times. […]
For orientation: In TR-FRET formats the signal depends on donor and acceptor labels being close together.
As for `Cc1c(C(=O)NCCN2CCOCC2)oc2c1-c1nn(Cc3ccc(Cl)cc3)cc1CC2` [Example 55, 2-[(4-chlorophenyl)methyl]-8-methyl-N-[2-(morpholin-4-yl)ethyl]-4,5-dihydro-2H-furo[2,3-g]indazole-7-carboxamide], the IC50 amounted to 4.18 µM.

As for `Cc1c(C(=O)NCCN2CCN(C)CC2)oc2c1-c1nn(Cc3cccc(Cl)c3)cc1CC2` [Example 17, 2-[(3-chlorophenyl)methyl]-8-methyl-N-[2-(4-methylpiperazin-1-yl)ethyl]-4,5-dihydro-2H-furo[2,3-g]indazole-7-carboxamide], the IC50 was 0.32 µM.

For `Cc1c(C(=O)NCCN2CCN(C)CC2)oc2c1-c1nn(Cc3ccc(Cl)cc3)cc1CC2` [Example 23, 2-[(4-chlorophenyl)methyl]-8-methyl-N-[2-(4-methylpiperazin-1-yl)ethyl]-4,5-dihydro-2H-furo[2,3-g]indazole-7-carboxamide], the IC50 was 0.3 µM. To `CC(=O)N1CCN(C(=O)c2oc3c(c2C)-c2nn(Cc4ccc(Cl)cc4)cc2CC3)CC1` [Example 62, 1-(4-{2-[(4-chlorophenyl)methyl]-8-methyl-4,5-dihydro-2H-furo[2,3-g]indazole-7-carbonyl}piperazin-1-yl)ethan-1-one] belongs 6.1 µM.

On to `Cc1c(C(=O)NCCN2CCCC2)oc2c1-c1nn(Cc3ccccc3Cl)cc1CC2` [Example 12, 2-[(2-chlorophenyl)methyl]-8-methyl-N-[2-(pyrrolidin-1-yl)ethyl]-4,5-dihydro-2H-furo[2,3-g]indazole-7-carboxamide], for which the half-maximal inhibitory concentration (IC50) turned out to be 0.3 µM. In the case of `Cc1c(C(=O)N(C)Cc2ncc[nH]2)oc2c1-c1nn(Cc3ccc(Cl)cc3)cc1CC2` [Example 74, 2-[(4-chlorophenyl)methyl]-N-[(1H-imidazol-2-yl)methyl]-N,8-dimethyl-4,5-dihydro-2H-furo[2,3-g]indazole-7-carboxamide] it was 10.8 µM; in that of `CC(=O)Nc1ccc(CNC(=O)c2oc3c(c2C)-c2nn(Cc4ccc(Cl)cc4)cc2CC3)cc1` [Example 43, N-[(4-acetamidophenyl)methyl]-2-[(4-chlorophenyl)methyl]-8-methyl-4,5-dihydro-2H-furo[2,3-g]indazole-7-carboxamide], 0.8 µM. As for `Cc1c(C(=O)N2CC(C)OC(C)C2)oc2c1-c1nn(Cc3ccc(Cl)cc3)cc1CC2` (centres unmarked) [Example 75, {2-[(4-chlorophenyl)methyl]-8-methyl-4,5-dihydro-2H-furo[2,3-g]indazol-7-yl}(2,6-dimethylmorpholin-4-yl)methanone], the IC50 was found to be 12.3 µM. In the case of `Cc1c(C(=O)NCc2cc[nH]n2)oc2c1-c1nn(Cc3ccc(Cl)cc3)cc1CC2` [Example 41, 2-[(4-chlorophenyl)methyl]-8-methyl-N-[(1H-pyrazol-3-yl)methyl]-4,5-dihydro-2H-furo[2,3-g]indazole-7-carboxamide], the concentration for half-maximal inhibition (IC50) amounted to 0.52 µM.

In the case of `Cc1c(C(=O)NCc2cncn2C)oc2c1-c1nn(Cc3ccc(Cl)cc3)cc1CC2` [Example 54, 2-[(4-chlorophenyl)methyl]-8-methyl-N-[(1-methyl-1H-imidazol-5-yl)methyl]-4,5-dihydro-2H-furo[2,3-g]indazole-7-carboxamide], the concentration for half-maximal inhibition (IC50) was found to be 3.39 µM.

As for `Cc1c(C(=O)NCCN2CCCC2)oc2c1-c1nn(Cc3cccc(Cl)c3)cc1CC2` [Example 18, 2-[(3-chlorophenyl)methyl]-8-methyl-N-[2-(pyrrolidin-1-yl)ethyl]-4,5-dihydro-2H-furo[2,3-g]indazole-7-carboxamide], the IC50 turned out to be 1 µM.

Regarding `Cc1c(C(=O)N2CCCC(C(N)=O)C2)oc2c1-c1nn(Cc3ccc(Cl)cc3)cc1CC2` (centres unmarked) [Example 88, 1-{2-[(4-chlorophenyl)methyl]-8-methyl-4,5-dihydro-2H-furo[2,3-g]indazole-7-carbonyl}piperidine-3-carboxamide], the IC50 was 17.3 µM. To `Cc1c(C(=O)NCCCO)oc2c1-c1nn(Cc3ccc(Cl)cc3)cc1CC2` [Example 64, 2-[(4-chlorophenyl)methyl]-N-(3-hydroxypropyl)-8-methyl-4,5-dihydro-2H-furo[2,3-g]indazole-7-carboxamide] belongs 6.68 µM.

For the molecule `Cc1ccccc1Cn1cc2c(n1)-c1c(oc(C(=O)NCc3ccon3)c1C)CC2` [Example 8, 8-methyl-2-[(2-methylphenyl)methyl]-N-[(1,2-oxazol-3-yl)methyl]-4,5-dihydro-2H-furo[2,3-g]indazole-7-carboxamide], the IC50 was found to be 0.24 µM. To `CC(=O)N1CCN(C(=O)CNC(=O)c2oc3c(c2C)-c2nn(Cc4ccc(Cl)cc4)cc2CC3)CC1` [Example 29, N-[2-(4-acetylpiperazin-1-yl)-2-oxoethyl]-2-[(4-chlorophenyl)methyl]-8-methyl-4,5-dihydro-2H-furo[2,3-g]indazole-7-carboxamide] belongs 8.21 µM. In the case of `Cc1c(C(=O)NC[C@@H]2CCCO2)oc2c1-c1nn(C(C)c3ccccc3F)cc1CC2` (mixture of isomers) [Example 95, 2-[(1RS)-1-(2-fluorophenyl)ethyl]-8-methyl-N-[(2S)-tetrahydrofuran-2-ylmethyl]-4,5-dihydro-2H-furo[2,3-g]indazole-7-carboxamide] it was 0.75 µM. To `CCN(CC)C(=O)CNC(=O)c1oc2c(c1C)-c1nn(Cc3ccc(Cl)cc3)cc1CC2` [Example 31, 2-[(4-chlorophenyl)methyl]-N-[2-(diethylamino)-2-oxoethyl]-8-methyl-4,5-dihydro-2H-furo[2,3-g]indazole-7-carboxamide] belongs 2.53 µM; to `Cc1c(C(=O)NCC2CCCO2)oc2c1-c1nn(Cc3ccccc3Cl)cc1CC2` (racemic) [Example 9, 2-[(2-chlorophenyl)methyl]-8-methyl-N-[(2RS)-tetrahydrofuran-2-ylmethyl]-4,5-dihydro-2H-furo[2,3-g]indazole-7-carboxamide], 0.046 µM; to `Cc1c(C(=O)N2CCCCC2)oc2c1-c1nn(Cc3ccc(Cl)cc3)cc1CC2` [Example 87], 17.1 µM. As for `Cc1ccc(CNC(=O)c2oc3c(c2C)-c2nn(Cc4ccc(Cl)cc4)cc2CC3)cc1` [Example 22, 2-[(4-chlorophenyl)methyl]-8-methyl-N-[(4-methylphenyl)methyl]-4,5-dihydro-2H-furo[2,3-g]indazole-7-carboxamide], the IC50 was 0.34 µM.

For the molecule `Cc1ccccc1Cn1cc2c(n1)-c1c(oc(C(=O)NC[C@@H]3COCCO3)c1C)CC2` [Example 5, N-{[(2R)-1,4-dioxan-2-yl]methyl}-8-methyl-2-[(2-methylphenyl)methyl]-4,5-dihydro-2H-furo[2,3-g]indazole-7-carboxamide], the IC50 is 0.009 µM. To `Cc1c(C(=O)NCCN2CCCCC2)oc2c1-c1nn(Cc3ccc(Cl)cc3)cc1CC2` [Example 25, 2-[(4-chlorophenyl)methyl]-8-methyl-N-[2-(piperidin-1-yl)ethyl]-4,5-dihydro-2H-furo[2,3-g]indazole-7-carboxamide] belongs 1.37 µM; to `Cc1c(C(=O)NCC2CCCO2)oc2c1-c1nn(Cc3ccc(Cl)cc3)cc1CC2` (racemic) [Example 21, 2-[(4-chlorophenyl)methyl]-8-methyl-N-[(2RS)-tetrahydrofuran-2-ylmethyl]-4,5-dihydro-2H-furo[2,3-g]indazole-7-carboxamide], 0.058 µM.
